Patent US11236066B2, “Crystalline forms of niraparib tosylate” (Apotex Inc., priority 2019, dated 2022)
Read-outs that look alike come from different tables or passages of the source.

Key:
[1] = 1 g sample, agitated in ball mill 2 hrs at 30 Hz, ambient relative humidity 60%
Experimental: Samples (1 g) were initially placed in a small glass dish inside a desiccator for 30 minutes. The initial electric field of each sample was then measured with a JCI 140 Static Monitor (John Chubb Instrumentation, England) wherein the height of the field meter from top of the glass dish was 2.5 cm. […] Each sample was then placed in a 20 mL plastic vial and agitated inside of a ball mill (Retsch Mixer Mill MM 301) for 2 hrs at 30 Hz. After the agitation period, each sample was returned to the glass dish and the electric field was measured. The ambient relative humidity during the experiments was 60%.

[2] = cited from earlier work; for Hygroscopicity: description in WO 2018/183354 A1, 4-methylbenzenesulfonate
[3] = 900 mL 0.01 N HCl buffer, 50 rpm, sample compressed at 1.5 metric tons for 1 minute
Experimental: Intrinsic dissolution rate (IDR) measurements were performed using a Wood apparatus. Samples were prepared by compressing the sample at 1.5 metric tons for 1 minute. A dissolution medium consisting of 900 mL 0.01 N HCl buffer, and rotation speed of 50 rpm was used for each experiment.

[4] = CHMP Assessment Report; cited from earlier work

## Cc1ccc(S(=O)(=O)O)cc1.NC(=O)c1cccc2cn(-c3ccc([C@@H]4CCCNC4)cc3)nc12 [Niraparib tosylate crystalline Form I, 2-{4-[(3S)-piperidin-3-yl]phenyl}-2H-indazole 7-carboxamide 4-methylbenzenesulfonate]
[1]
  Electric Field After Agitation: 0.50 kV
[2]; listed as crystalline Form I
  Hygroscopicity: non-hygroscopic
[3]
  Intrinsic Dissolution Rate: 0.1451 mg min^−1 cm^−2
[4]
  Biopharmaceutics Classification System (BCS) class: Class II

## Cc1ccc(S(=O)(=O)O)cc1.NC(=O)c1cccc2cn(-c3ccc([C@@H]4CCCNC4)cc3)nc12 [crystalline Form III, 2-{4-[(3S)-piperidin-3-yl]phenyl}-2H-indazole 7-carboxamide 4-methylbenzenesulfonate]
[2]
  Hygroscopicity: very hygroscopic
[2]; up to 95% relative humidity (RH)
  Weight gain in DVS: 15.8%
